From patent publication US20080293699A1, “Inhibitors of thapsigargin-induced cell death” (priority 2007, published 2008)
“Also recorded” adds a separate entry of the source.

Legend:
[1] = system: ASK1 binding to 14-3-3 protein; assay: Co-immunoprecipitation of ASK1 with 14-3-3 in transfected 293T cells; assay type: cell-based; settings: thapsigargin-stimulated transfected 293T; 100 μM where stated
Protocol: Phosphorylation of ASK1 at various sites was inspected. 293T cells were transfected with pcDNA-ASK1-HA. One day later, cells were incubated with DMSO (0.4%) or 100 μM compound 6239507 (#1) for two hours. Cell extracts were prepared using lysis buffer and were subjected to immunoblotting using anti-phospho ASK1 antibodies or anti HA antibody as indicated (A). The relative density of each phosphorylated ASK band was calculated by imageJ software (B). In (C), compounds from (A) were compared in activity against thapsigargin-induced cell death. […] (D) 293T cells were transfected with pcDNA-ASK1-HA and pEBG-GST-14-3-3. One day later cells were incubated with DMSO (0.4%) or 100 μM of the indicated compound for two hours. Then cells were treated with thapsigargin (20 μM) for the indicated time. Cell extracts were prepared using lysis buffer, and 14-3-3 proteins were immunoprecipitated with […] sepharose beads. ASK1 protein binding with 14-3-3 was visualized by immunoblotting using anti-HA antibody. Anti-phospho ASK1 (ser967) antibody was used to detect phosphorylation of ASK1 at each time point. […]
The ser 967 site of ASK1 is known to down-regulate ASK1 activity by phosphorylation (Goldman et al., J. Biol. Chem. 279:10442-10449, 2004) via 14-3-3 binding. […] The relative density of each phosphorylated ASK band was calculated by imageJ software. […]

phospho-c-Jun = assay: Immunoblotting of thapsigargin-induced c-Jun phosphorylation in CSM14.1 cells; assay type: cell-based, rat; settings: immunoblotting with phospho-specific antibody, 10 μM, 25 μM hits
Description: After confirming the pathway selectivity of compounds, additional downstream assays can be performed to map the specific signal transduction pathway inhibited by the compounds. In this regard, various antibody reagents are commercially available for assessing the status of the three major pathways known to be activated by ER stress: (1) PERK, (2) Ire1, and (3) ATF6 (Xu et al., J. Clinical Invest., 115:2656-2664, 2005). Immunoblotting experiments can be performed to assess the expression or phosphorylation (using phospho-specific antibodies) of marker proteins in these pathways. […] CSM 14.1 cells were cultured with DMSO or with 25 μM of hit compounds for two hours, followed by treatment of thapsigargin (15 μM). Cell lysates were prepared and analyzed by SDS-PAGE/immunoblotting using antibodies specific for phospho-c-Jun, phospho-eIF2α, phospho-p38 MAPK, and tubulin (a loading control). CSM14.1 cells were cultured with either DMSO or one of the active compounds at 1, 5, and 10 μM, followed two hours later by 15 μM TG. After two hrs, cell lysates were prepared, normalized for protein content, and either analyzed by SDS-PAGE/immunoblotting using anti-p38-MAPK pan-reactive antibody or phospho-specific antibody with ECL-based detection, followed by densitometry analysis of x-ray films, normalizing phosphor-p38 MAPK relative to total p38 MAPK, or analyzed using a meso-scale instrument from MSD and a procedure in which total p38 MAPK is captured on plates, and the relative amounts of phosphorylated protein were determined using phospho-specific antibody (MSD catalog #K15112D1). […] Suppression of p38 MAPK and c-Jun phosphorylation was dose-dependent, and could not be explained by a decline in total levels of these proteins. […] Proteolytic processing of ATF6 was also not inhibited by our hit compounds. […] Screens of other libraries (such as the NIH compound collection) may yield cytoprotective compounds with different mechanisms.
1) CSM14.1 cells were plated at a density of 2×10^5 cells/well at 6 well dish (Greiner Bio one) in DMEM containing 2% FBS and antibiotics.
2) After overnight incubation, cells were treated by DMSO (0.5%) or compounds (25 μM) for two hours, followed by TG (15 uM) treatment.
3) After two hours, cells were lyzed in 250 uL of lysis buffer and subjected to protein concentration decision, and to SDS PAGE/Western blotting using antibodies specific for phospho p38 MAPK (Cell signaling 9211), p38 MAPK (Santa Cruz-C20), phospho c-Jun (Cell signaling 9164), c-Jun (Santa Cruz-SC 1694), phospho eIF2α (Cell signaling 3597) and α-tubulin.
CSM 14.1 cells were cultured with DMSO or with 25 μM of hit compounds for two hours followed by treatment with thapsigargin (15 μM). Cell lysates were prepared and analyzed by SDS-PAGE/immunoblotting using antibodies specific for: c-Jun, phosphor-c-Jun (ser 73), eIF2a, phosphor-eIF2a (ser 51), p38 MAPK, phosphor-p38 MAPK (Thr180/Tyr182), ATF-6, CHOP and tubulin (loading control). ER stress-induced activation of C-Jun and p38 MAPK is suppressed by the 11 hit compounds.
CSM cells were treated with two compounds at increasing doses. Pre-incubation time, thapsigargin treatment, cell extract preparation and immunoblotting protocols were as described previously.

SMILES	Binding of ASK1 to 14-3-3 protein [1]	Thapsigargin-induced phosphorylation of c-Jun (phospho-c-Jun)
CCN(CC)c1ccc(C2Nc3ccccc3NC3=C2C(=O)CC(c2ccccc2)C3)cc1 (stereo not shown) [Compound 5962123, 6-(4-diethylaminophenyl)-9-phenyl-5,6,8,9,10,11-hexahydrobenzo[c][1,5]benzodiazepin-7-one]	increased 14-3-3 binding to ASK1; also recorded: increases binding	inhibits
COc1ccc(C2CC(=O)C3=C(C2)Nc2ccccc2NC3c2ccccc2C(F)(F)F)cc1OC (stereo not shown) [Compound 6237735]	–	dose-dependent decrease
COc1ccc(C2CC(=O)C3=C(C2)Nc2ccccc2NC3c2cccc(Oc3ccccc3)c2)cc1OC (stereo not shown) [Compound 6239507]	inhibits dissociation of 14-3-3 from ASK1	–
